Key:
CCRF-CEM [1] = test: Cytotoxic concentration against uninfected CEM cells; type: functional; settings: Homo sapiens
[2] = target: T1, Human immunodeficiency virus type 1 integrase (Human immunodeficiency virus 1, UniProt Q7ZJM1)
Description: Inhibition of HIV-1 integrase catalytic activity

CCRF-CEM [3] = test: Maximum protection of CEM cells by the compound against HIV-1 at a dose of 20 uM; type: functional, Homo sapiens
[4] = target: T1, Human immunodeficiency virus type 1 integrase; remark: listed apart in the source
CCRF-CEM [5] = test: Anti HIV-1 activity expressed as the concentration required to protect of HIV-1 infected CEM cells; type: functional, cell-based; settings: Homo sapiens
[6] = Therapeutic index expressed as the ratio of CC50 and EC50; type: cell-based; settings: human, CCRF-CEM cells; read-out: Therapeutic index
CCRF-CEM [7] = test: Maximum protection of CEM cells by the compound against HIV-1; No protection; type: functional, cell-based; settings: Homo sapiens
[8] = Therapeutic index expressed as the ratio of CC50 and EC50; No therapeutic benifit reached; type: cell-based; settings: human, ccrf-cem
[9] = target: T1, Human immunodeficiency virus type 1 integrase; test: Evaluated for inhibition of HIV-1 integrase catalytic activity in terms of inhibition of 3'-processing; type: functional
CCRF-CEM [10] = test: Maximum protection of CEM cells by the compound against HIV-1 at a dose of 2 uM; type: functional, Homo sapiens
CCRF-CEM [11] = test: Maximum protection of CEM cells by the compound against HIV-1 at a dose of 63 uM; type: functional, Homo sapiens
CCRF-CEM [12] = test: Maximum protection of CEM cells by the compound against HIV-1 at a dose of 0.2 uM; type: functional, Homo sapiens
CCRF-CEM [13] = test: Maximum protection of CEM cells by the compound against HIV-1 at a dose of 2 uM; No protection; type: functional, cell-based; settings: Homo sapiens

T1 sequence (Q7ZJM1 whole entry): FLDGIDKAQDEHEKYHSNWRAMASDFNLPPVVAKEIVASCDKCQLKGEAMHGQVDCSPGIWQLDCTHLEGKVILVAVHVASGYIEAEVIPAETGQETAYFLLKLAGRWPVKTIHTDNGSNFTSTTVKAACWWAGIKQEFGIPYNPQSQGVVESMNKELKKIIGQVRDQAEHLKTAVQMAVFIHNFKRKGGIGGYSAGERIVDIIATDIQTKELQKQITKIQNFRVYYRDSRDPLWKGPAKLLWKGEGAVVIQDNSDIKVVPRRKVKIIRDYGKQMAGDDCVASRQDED

Compound | CC50 (CCRF-CEM [1]) [µM] | IC50 [2] [µM] | Max protection (CCRF-CEM [3]) [%] | IC50 [4] [µM] | EC50 (CCRF-CEM [5]) [µM] | selectivity ratio [6] | Max protection (CCRF-CEM [7]) | Therapeutic index [8] | IC50 [9] [µM] | Max protection (CCRF-CEM [10]) [%] | Max protection (CCRF-CEM [11]) [%] | Max protection (CCRF-CEM [12]) [%] | Max protection (CCRF-CEM [13])
O=C(/C=C(\O)c1cccc(Cc2ccccc2F)c1)C(=O)NCCCCCCNC(=O)C(=O)/C=C(\O)c1cccc(Cc2ccccc2F)c1 | 124 | 2.7 | 86 | 32 | 16 | 8 |  |  |  |  |  |  | 
O=C(O)C(=O)/C=C(\O)c1cccc(C(c2cccc(/C(O)=C/C(=O)C(=O)O)c2)c2ccccc2F)c1 (configuration not stated) | 81 |  | 88 |  | 17 |  |  |  |  |  |  |  | 
O=C(O)C(=O)/C=C(\O)c1cccc(OCc2ccc(COc3cccc(/C(O)=C/C(=O)C(=O)O)c3)cc2)c1 | > 200 | 1.9 |  | 1.7 | > 200 |  | No protection | No therapeutic benefit |  |  |  |  | 
O=C(/C=C(\O)c1cccc(Cc2ccccc2F)c1)C(=O)N1CCN(C(=O)C(=O)/C=C(\O)c2cccc(Cc3ccccc3F)c2)CC1 | 11 | 0.3 |  |  | 0.8 | 14 |  |  | 2.5 | 100 |  |  | 
O=C(O)C(=O)/C=C(\O)c1cccc(OCc2ccccc2COc2cccc(/C(O)=C/C(=O)C(=O)O)c2)c1 | > 200 |  |  |  | 39 |  |  |  |  |  | 97 |  | 
O=C(O)C(=O)/C=C(\O)c1cccc(OCc2cccc(COc3cccc(/C(O)=C/C(=O)C(=O)O)c3)c2)c1 | > 200 |  |  | 7.3 | > 200 |  | No protection |  |  |  |  |  | 
O=C(O)C(=O)/C=C(\O)c1cccc(Cc2ccccc2F)c1 | 62 | 0.4 |  | 2.5 | 0.02 | 3110 |  |  |  |  |  | 98 | 
O=C(/C=C(\O)c1cccc(Cc2ccccc2F)c1)C(=O)NCCNC(=O)C(=O)/C=C(\O)c1cccc(Cc2ccccc2F)c1 | 5 | 0.2 |  | 5.8 | > 5 |  |  | No therapeutic benefit |  |  |  |  | No protection
O=C(/C=C(\O)c1cccc(Cc2ccccc2F)c1)C(=O)NCCCNC(=O)C(=O)/C=C(\O)c1cccc(Cc2ccccc2F)c1 | 9 | 0.2 |  | 5.3 | > 9 |  | No protection | No therapeutic benefit |  |  |  |  | 
O=C(/C=C(\O)c1cccc(Cc2ccccc2F)c1)C(=O)NCCCCCNC(=O)C(=O)/C=C(\O)c1cccc(Cc2ccccc2F)c1 | 12 | 0.7 |  | 4.8 | > 12 |  | No protection | No therapeutic benefit |  |  |  |  | 

Source: ChEMBL document CHEMBL1148310, “Rational design and synthesis of novel dimeric diketoacid-containing inhibitors of HIV-1 integrase: implication for binding to two metal ions on the active site of integrase” (J Med Chem, 2004)
